According to ChEMBL document CHEMBL1150486, “Dihydro-imidazolone derivatives as angiotensin II receptor antagonists: chiral effect on the activity” (Bioorg Med Chem Lett, 1994):

Columns and labels:
[1] = molecular target: T1, Type-1 angiotensin II receptor B (Rattus norvegicus, UniProt P29089); assay: In vitro binding affinity at Angiotensin II receptor, type 1 from rat liver membrane by [125I]- A II displacement.
T1 sequence (P29089 whole entry): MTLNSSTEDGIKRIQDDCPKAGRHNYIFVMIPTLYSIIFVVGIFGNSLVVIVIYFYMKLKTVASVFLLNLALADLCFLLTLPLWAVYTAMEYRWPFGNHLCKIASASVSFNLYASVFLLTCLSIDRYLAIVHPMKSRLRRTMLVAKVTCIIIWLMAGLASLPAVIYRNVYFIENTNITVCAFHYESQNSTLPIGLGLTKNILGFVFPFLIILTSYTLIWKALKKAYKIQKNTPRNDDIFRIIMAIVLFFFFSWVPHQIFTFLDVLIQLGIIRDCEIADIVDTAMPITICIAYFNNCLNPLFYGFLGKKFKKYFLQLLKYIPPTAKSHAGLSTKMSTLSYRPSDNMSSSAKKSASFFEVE

Oryctolagus cuniculus = organism: Oryctolagus cuniculus; assay: Antagonism of the AII induced contraction of rabbit aortic tissue in a functional assay; conditions: Aorta

IC50 [1]	IC50 (Oryctolagus cuniculus)	Structure (SMILES)
3.3 nM	9.6 nM	CCCCC1=NC(C)(C2CCCC2)C(=O)N1Cc1ccc(-c2ccccc2C(=O)O)cc1 (centres undefined)
19 nM	130 nM	CCCCC1=NC(C)(c2ccccc2)C(=O)N1Cc1ccc(-c2ccccc2C(=O)O)cc1 (centres undefined)
